# Earlier results as cited in patent publication US20230181442A1, “METHOD FOR DYEING KERATIN MATERIAL, COMPRISING THE USE OF AN ORGANOSILICON COMPOUND, HYALURONIC ACID (SALT), A DYEING COMPOUND AND A POST-TREATMENT AGENT” (Henkel AG & Co. KGaA, priority 2020, published 2023).
# Conditions: for solubility in water: 25° C.
solubility in water,solubility in water (in words) (water at 25° C.),SMILES
more than 20 wt. %,–,CCN(Cc1cccc(S(=O)(=O)O)c1)c1ccc(C(=C2C=CC(=[N+](CC)Cc3cccc(S(=O)(=O)O)c3)C=C2)c2ccccc2S(=O)(=O)[O-])cc1 [Acid Blue 9]
above 40 g/L,–,"O=[N+]([O-])c1cc([N+](=O)[O-])c2ccc(S(=O)(=O)O)cc2c1O [Acid Yellow 9, 8-hydroxy-5,7-dinitro-2-naphthalenesulfonic acid]"
–,highly soluble,"O=C(O)C1=NN(c2ccc(S(=O)(=O)O)cc2)C(=O)C1N=Nc1ccc(S(=O)(=O)O)cc1 (stereo not shown) [Acid Yellow 23, 4,5-dihydro-5-oxo-1-(4-sulfophenyl)-4-((4-sulfophenyl)azo)-1H-pyrazole-3-carboxylic acid]"

SMILES,solubility in water,solubility in water (in words) (water at 25° C.)
"O=S(=O)(O)c1ccc(N=Nc2c(O)ccc3ccccc23)cc1 [Acid Orange 7, 4-[(2-hydroxy-1-naphthyl)azo]benzene sulfonate]",more than 7 g/L,–
